Test results as given in patent publication EP4553080A1, “NUCLEOSIDE DERIVATIVES AS ANTIVIRAL AGENTS AGAINST CORONAVIRUSES” (Ustav Organicke Chemie a Biochemie AV CR, v.v.i., priority 2023, dated 2025).

Molecular target: nsp14 methyltransferase from SARS-CoV-2 (Severe acute respiratory syndrome coronavirus 2, UniProt P0DTD1)
Test: Nsp14 MTase activity inhibition in vitro (EchoMS assay)
Assay type: biochemical
Conditions: recombinant nsp14 protein expressed in E. coli; dose-response curve

Cc1noc(-c2ccccc2)c1CSC[C@H]1O[C@@H](n2cc(-c3ccc([N+](=O)[O-])cc3)c3c(N)ncnc32)[C@H](O)[C@@H]1O [Compound 144b] and Cc1noc(-c2ccccc2)c1CSC[C@H]1O[C@@H](n2cc(-c3ccc([N+](=O)[O-])nc3)c3c(N)ncnc32)[C@H](O)[C@@H]1O [Compound 152, (2R,3R,4S,5S)-2-(4-Amino-5-(6-nitropyridin-3-yl)-7H-pyrrolo[2,3-d]pyrimidin-7-yl)-5-((((3-methyl-5-phenylisoxazol-4-yl)methyl)thio)methyl)tetrahydrofuran-3,4-diol] fall in the same range of IC50: 0.03 to 0.1 µM for the first, 0.03 to 0.1 µM for the second.

Cc1noc(-c2ccccc2)c1CSC[C@H]1O[C@@H](n2cc(-c3ccc(C(F)(F)F)cc3)c3c(N)ncnc32)[C@H](O)[C@@H]1O [Compound 145b] and Cc1noc(-c2ccccc2)c1CSC[C@H]1O[C@@H](n2cc(-c3ccc(OC(F)(F)F)cc3)c3c(N)ncnc32)[C@H](O)[C@@H]1O [Compound 146b, (2R,3R,4S,5S)-2-(4-Amino-5-(4-(trifluoromethoxy)phenyl)-7H-pyrrolo[2,3-d]pyrimidin-7-yl)-5-((((3-methyl-5-phenylisoxazol-4-yl)methyl)thio)methyl)tetrahydrofuran-3,4-diol] fall in the same range of IC50: 0.1 to 0.5 µM for the first, 0.1 to 0.5 µM for the second.

First: COc1ccc(-c2cn([C@@H]3O[C@H](CSCc4c(C)noc4-c4ccccc4)[C@@H](O)[C@H]3O)c3ncnc(N)c23)cc1OC [Compound 147b]
Second: Cc1noc(-c2ccccc2)c1CSC[C@H]1O[C@@H](n2cc(-c3ccc4nc[nH]c4c3)c3c(N)ncnc32)[C@H](O)[C@@H]1O [Compound 151, (2R,3R,4S,5S)-2-(4-Amino-5-(1H-benzo[d]imidazol-6-yl)-7H-pyrrolo[2,3-d]pyrimidin-7-yl)-5-((((3-methyl-5-phenylisoxazol-4-yl)methyl)thio)methyl)tetrahydrofuran-3,4-diol]
The IC50 of the first is lower: 0.01 to 0.03 µM for the first, 0.03 to 0.1 µM for the second. The first is the more potent here.

Compared with Cc1noc(-c2ccccc2)c1CSC[C@H]1O[C@@H](n2cc(-c3ccc4ccccc4c3)c3c(N)ncnc32)[C@H](O)[C@@H]1O [Compound 148b, (2R,3R,4S,5S)-2-(4-Amino-5-(naphthalen-2-yl)-7H-pyrrolo[2,3-d]pyrimidin-7-yl)-5-((((3-methyl-5-phenylisoxazol-4-yl)methyl)thio)methyl)tetrahydrofuran-3,4-diol], Cc1noc(-c2ccccc2)c1CSC[C@H]1O[C@@H](n2cc(-c3ccccc3)c3c(N)ncnc32)[C@H](O)[C@@H]1O [Compound 149, (2R,3R,4S,5S)-2-(4-Amino-5-phenyl-7H-pyrrolo[2,3-d]pyrimidin-7-yl)-5-((((3-methyl-5-phenylisoxazol-4-yl)methyl)thio)methyl)tetrahydrofuran-3,4-diol] is lower in IC50: 0.1 to 0.5 µM for the first, 0.03 to 0.1 µM for the second.

Compared with Cc1cc(C#N)cc(C)c1-c1cn([C@@H]2O[C@H](CSCc3c(C)noc3-c3ccccc3)[C@@H](O)[C@H]2O)c2ncnc(N)c12 [Compound 150, 4-(4-Amino-7-((2R,3R,4S,5S)-3,4-dihydroxy-5-((((3-methyl-5-phenylisoxazol-4-yl)methyl)thio)methyl)tetrahydrofuran-2-yl)-7H-pyrrolo[2,3-d]pyrimidin-5-yl)-3,5-dimethylbenzonitrile], Cc1noc(-c2ccccc2)c1CSC[C@H]1O[C@@H](n2cc(-c3ccnn3C)c3c(N)ncnc32)[C@H](O)[C@@H]1O [Compound 154] is higher in IC50: 0.01 to 0.03 µM for the first, 0.03 to 0.1 µM for the second. The first is the more potent here.

Cc1noc(-c2ccccc2)c1CSC[C@H]1O[C@@H](n2cc(-c3ccco3)c3c(N)ncnc32)[C@H](O)[C@@H]1O [Compound 153] and Cc1noc(-c2ccccc2)c1CSC[C@H]1O[C@@H](n2cc(-c3cncn3C)c3c(N)ncnc32)[C@H](O)[C@@H]1O [Compound 155, (2R,3R,4S,5S)-2-(4-Amino-5-(1-methyl-1H-imidazol-5-yl)-7H-pyrrolo[2,3-d]pyrimidin-7-yl)-5-((((3-methyl-5-phenylisoxazol-4-yl)methyl)thio)methyl)tetrahydrofuran-3,4-diol] fall in the same range of IC50: 0.03 to 0.1 µM for the first, 0.03 to 0.1 µM for the second.
